Assay results from paper PMC6851657 (Clinical Pharmacology and Therapeutics, 2019).
Where two headings read alike, the source gives them in different places. Marks after values point to notes of the source that are not given here.

Assays:
[1] = target: CYP2C19 (Homo sapiens, UniProt P33261); experiment: Enzyme phenotyping, intrinsic clearance by retrograde calculation; type: in vitro ADME
[2] = target: T1, CYP2B6 (Homo sapiens, UniProt P20813); experiment: as above; type: in vitro ADME
T1 sequence (P20813 1-491): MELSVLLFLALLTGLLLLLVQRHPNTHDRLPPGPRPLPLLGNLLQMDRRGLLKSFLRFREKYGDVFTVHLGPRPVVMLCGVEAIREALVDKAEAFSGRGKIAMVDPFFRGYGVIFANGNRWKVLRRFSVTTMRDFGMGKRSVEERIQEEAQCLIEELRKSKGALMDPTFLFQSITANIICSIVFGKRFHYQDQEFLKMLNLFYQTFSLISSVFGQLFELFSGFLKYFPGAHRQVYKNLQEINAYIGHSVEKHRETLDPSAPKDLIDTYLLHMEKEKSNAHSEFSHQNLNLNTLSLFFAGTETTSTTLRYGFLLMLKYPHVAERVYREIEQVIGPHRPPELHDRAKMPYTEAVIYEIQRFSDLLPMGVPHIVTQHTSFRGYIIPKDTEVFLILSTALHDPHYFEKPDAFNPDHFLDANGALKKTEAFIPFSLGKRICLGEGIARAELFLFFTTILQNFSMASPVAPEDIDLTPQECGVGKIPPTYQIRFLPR

[3] = target: CYP3A4 (Homo sapiens, UniProt P08684); experiment: as above; type: in vitro ADME
[4] = cited from earlier work
[5] = cited from earlier work; for t1/2 / AUCinf / Cmax / Tmax: observed; for t1/2: GM (CV%); for AUCinf / Cmax: GM (CV%; 90% CI); for Tmax: median (range)
[6] = day 28, observed, cited from earlier work; for AUC(0–24 h) / Cmin: GM (CV%); for Cmax: GM (CV%; 90% CI)
[7] = single oral 0.25 mg, observed, cited from earlier work
[8] = target: T2, CYP2C8 (Homo sapiens, UniProt P10632); experiment: Enzyme phenotyping, intrinsic clearance by retrograde calculation; type: in vitro ADME
T2 sequence (P10632 1-490): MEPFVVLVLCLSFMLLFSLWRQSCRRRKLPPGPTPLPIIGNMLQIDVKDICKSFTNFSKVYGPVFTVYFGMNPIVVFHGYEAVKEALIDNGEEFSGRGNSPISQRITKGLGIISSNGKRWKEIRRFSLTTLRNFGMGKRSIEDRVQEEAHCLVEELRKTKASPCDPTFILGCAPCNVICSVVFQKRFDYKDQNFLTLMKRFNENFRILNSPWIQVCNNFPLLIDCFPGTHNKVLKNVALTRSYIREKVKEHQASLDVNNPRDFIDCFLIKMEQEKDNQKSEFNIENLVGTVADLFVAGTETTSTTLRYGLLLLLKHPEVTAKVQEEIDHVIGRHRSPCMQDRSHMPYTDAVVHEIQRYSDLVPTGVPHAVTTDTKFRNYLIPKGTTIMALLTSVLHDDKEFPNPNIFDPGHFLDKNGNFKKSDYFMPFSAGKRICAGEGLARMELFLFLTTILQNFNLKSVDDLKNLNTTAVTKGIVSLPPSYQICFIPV

[9] = ref Novartis data on file, 5, cited from earlier work
[10] = target: CYP2C9 (Homo sapiens, UniProt P11712); details: cited from earlier work
[11] = 0.3 mg solution p.o. single dose
[12] = 2.5 mg capsule p.o. single dose
[13] = 2.5 mg solution p.o. single dose
[14] = 17.5 mg capsule p.o. single dose

Chain of CYP3A4 (P08684 whole entry): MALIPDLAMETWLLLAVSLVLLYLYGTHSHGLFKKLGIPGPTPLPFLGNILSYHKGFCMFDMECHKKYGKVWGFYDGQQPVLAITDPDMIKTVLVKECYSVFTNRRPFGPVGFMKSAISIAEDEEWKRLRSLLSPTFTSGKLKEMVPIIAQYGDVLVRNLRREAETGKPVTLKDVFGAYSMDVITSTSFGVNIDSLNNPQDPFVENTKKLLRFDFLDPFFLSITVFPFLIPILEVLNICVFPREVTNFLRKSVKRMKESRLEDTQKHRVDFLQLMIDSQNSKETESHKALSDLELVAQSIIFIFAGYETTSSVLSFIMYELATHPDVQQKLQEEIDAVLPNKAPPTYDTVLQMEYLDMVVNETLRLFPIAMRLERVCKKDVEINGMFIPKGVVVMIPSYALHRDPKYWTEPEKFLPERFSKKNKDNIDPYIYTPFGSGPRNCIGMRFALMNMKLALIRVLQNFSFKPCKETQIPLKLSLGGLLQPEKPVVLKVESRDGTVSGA
Chain of CYP2C9 (P11712 whole entry): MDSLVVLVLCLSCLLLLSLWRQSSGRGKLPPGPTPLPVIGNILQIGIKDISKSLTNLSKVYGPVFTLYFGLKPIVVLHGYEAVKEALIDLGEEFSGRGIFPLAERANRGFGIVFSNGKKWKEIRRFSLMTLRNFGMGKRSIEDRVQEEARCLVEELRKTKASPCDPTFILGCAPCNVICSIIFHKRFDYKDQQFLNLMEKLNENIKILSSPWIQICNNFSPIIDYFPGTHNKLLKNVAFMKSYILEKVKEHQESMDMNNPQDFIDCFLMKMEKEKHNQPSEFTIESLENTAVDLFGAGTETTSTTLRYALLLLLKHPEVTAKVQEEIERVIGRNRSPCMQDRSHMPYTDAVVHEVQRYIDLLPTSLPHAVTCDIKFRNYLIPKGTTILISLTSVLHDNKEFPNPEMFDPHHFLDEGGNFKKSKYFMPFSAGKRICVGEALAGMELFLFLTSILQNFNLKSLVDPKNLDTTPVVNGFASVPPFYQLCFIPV
Chain of CYP2C19 (P33261 whole entry): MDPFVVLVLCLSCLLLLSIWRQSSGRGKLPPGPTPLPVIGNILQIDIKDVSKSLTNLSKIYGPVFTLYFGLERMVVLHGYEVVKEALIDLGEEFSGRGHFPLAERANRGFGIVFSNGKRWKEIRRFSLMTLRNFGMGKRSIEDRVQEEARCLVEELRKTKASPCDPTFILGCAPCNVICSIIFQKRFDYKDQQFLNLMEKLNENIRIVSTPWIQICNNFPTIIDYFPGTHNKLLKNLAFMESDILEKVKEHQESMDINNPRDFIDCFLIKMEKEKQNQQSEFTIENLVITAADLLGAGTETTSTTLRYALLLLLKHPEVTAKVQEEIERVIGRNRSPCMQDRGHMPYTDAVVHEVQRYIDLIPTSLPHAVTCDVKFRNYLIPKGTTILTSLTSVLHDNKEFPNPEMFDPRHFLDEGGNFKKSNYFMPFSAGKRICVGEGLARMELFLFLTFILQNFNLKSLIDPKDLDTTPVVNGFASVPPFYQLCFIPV

CCc1cc(/C(C)=N/OCc2ccc(C3CCCCC3)c(C(F)(F)F)c2)ccc1CN1CC(C(=O)O)C1 [siponimod]
fmCYP2C19 ([1]; fraction metabolized): 0.001 | CLint (CYP2C19) ([1]; retrograde calculator from CL 3.12 L/hour, fu(mic) set to 1): 0.593 µL/min/pmol | In vitro intrinsic clearance (CYP2B6) [2]: 0.733 µL/min/pmol | fmCYP2B6 ([2]; fraction metabolized): 0.004 | CLint (CYP3A4) [3]: 5.607 µL/min/pmol | fmCYP3A4 ([3]; CYP2C9*1/*1): 0.175 | fmCYP3A4 ([3]; CYP2C9*1/*2): 0.189 | fmCYP3A4 ([3]; CYP2C9*1/*3): 0.287 | fmCYP3A4 ([3]; CYP2C9*2/*2): 0.244 | fmCYP3A4 ([3]; CYP2C9*2/*3): 0.343 | fmCYP3A4 ([3]; fraction metabolized): 0.185 | Fraction available from dosage form ([4]; based on amount of siponimod excreted to feces): 0.91 ^c | Absorption rate constant ([4]; estimated based on PopPK model, ref Novartis data on file): 0.687 ^d 1/hour | t1/2 [5, 11]: 33.21 (28) h | AUCinf [5, 11]: 89.3 (20; 79.2–99.4) ng·hour/mL | Cmax [5, 11]: 2.26 (6; 2.17–2.34) ng/mL | Tmax [5, 11]: 5 (4.00–8.00) h | t1/2 ([5]; 1 mg solution p.o. single dose): 45.7 (26) h | AUCinf ([5]; 1 mg solution p.o. single dose): 349 (28; 292–406) ng·hour/mL | Cmax ([5]; 1 mg solution p.o. single dose): 7.43 (42; 5.37–9.50) ng/mL | Tmax ([5]; 1 mg solution p.o. single dose): 5 (4.00–15.7) h | t1/2 [5, 12]: 29.3 (17) h | AUCinf [5, 12]: 745 (25; 632–858) ng·hour/mL | Cmax [5, 12]: 19.3 (19; 17.1–21.5) ng/mL | Tmax [5, 12]: 6 (4.00–8.00) h | t1/2 [5, 13]: 27.0 (22) h | AUCinf [5, 13]: 766 (36; 598–935) ng·hour/mL | Cmax [5, 13]: 21.9 (35; 16.7–27.0) ng/mL | Tmax [5, 13]: 4 (3.00–8.00) h | t1/2 ([5]; 5 mg capsule p.o. single dose): 31.3 (19) h | AUCinf ([5]; 5 mg capsule p.o. single dose): 1,260 (20; 1,149–1,384) ng·hour/mL | Cmax ([5]; 5 mg capsule p.o. single dose): 38.5 (21; 33.5–41.5) ng/mL | Tmax ([5]; 5 mg capsule p.o. single dose): 3 (2.00–8.00) h | t1/2 ([5]; 10 mg capsule p.o. single dose): 32.0 (17) h | AUCinf ([5]; 10 mg capsule p.o. single dose): 2,710 (14; 2,507–2,915) ng·hour/mL | Cmax ([5]; 10 mg capsule p.o. single dose): 77.3 (25; 64.8–89.7) ng/mL | Tmax ([5]; 10 mg capsule p.o. single dose): 5 (3.82–16.0) h | t1/2 [5, 14]: 42.3 (38) h | AUCinf [5, 14]: 4,230 (25; 3,666–4,792) ng·hour/mL | Cmax [5, 14]: 111 (32; 93.7–128.4) ng/mL | Tmax [5, 14]: 4 (2.00–8.00) h | t1/2 ([5]; 25 mg capsule p.o. single dose): 47.7 (20) h | AUCinf ([5]; 25 mg capsule p.o. single dose): 8,140 (24; 6,987–9,302) ng·hour/mL | Cmax ([5]; 25 mg capsule p.o. single dose): 217 (29; 180–254) ng/mL | Tmax ([5]; 25 mg capsule p.o. single dose): 3.50 (1.50–12.0) h | t1/2 ([5]; 75 mg capsule p.o. single dose): 56.7 (12) h | Cmax ([5]; 75 mg capsule p.o. single dose): 491 (51; 346–637) ng/mL | Tmax ([5]; 75 mg capsule p.o. single dose): 6 (2.00–24.00) h | elimination half‐life (t1/2), range [5]: 22 to 38 h | mean elimination half‐life (t1/2) [5]: ~ 30 hours | AUC(0–24 h) ([6]; 0.3 mg solution p.o. q.d.): 97.9 (19) ng·hour/mL | Cmin ([6]; 0.3 mg solution p.o. q.d.): 2.83 (27) ng/mL | Cmax ([6]; 0.3 mg solution p.o. q.d.): 5.13 (16; 4.76–5.86) ng/mL | AUC(0–24 h) ([6]; 1 mg solution p.o. q.d.): 282 (16) ng·hour/mL | Cmin ([6]; 1 mg solution p.o. q.d.): 7.74 (20) ng/mL | Cmax ([6]; 1 mg solution p.o. q.d.): 14.9 (10; 14.0–15.9) ng/mL | AUC(0–24 h) ([6]; 2.5 mg capsule p.o. q.d.): 692 (45) ng·hour/mL | Cmin ([6]; 2.5 mg capsule p.o. q.d.): 15.2 (120) ng/mL | Cmax ([6]; 2.5 mg capsule p.o. q.d.): 38.3 (37; 29.1–47.4) ng/mL | AUC(0–24 h) ([6]; 10 mg capsule p.o. q.d.): 2,580 (24) ng·hour/mL | Cmin ([6]; 10 mg capsule p.o. q.d.): 70.6 (29) ng/mL | Cmax ([6]; 10 mg capsule p.o. q.d.): 147 (24; 126–168) ng/mL | AUC(0–24 h) ([6]; 20 mg capsule p.o. q.d.): 6,370 (23) ng·hour/mL | Cmin ([6]; 20 mg capsule p.o. q.d.): 166 (88) ng/mL | Cmax ([6]; 20 mg capsule p.o. q.d.): 359 (17; 325–394) ng/mL | AUCinf ([7]; CYP2C9*1/*1): 70.5 (21.2) ng·hour/mL | t1/2 ([7]; CYP2C9*1/*1): 28.1 (18.5) h | AUCinf ([7]; CYP2C9*2/*3): 144 (15.7) ng·hour/mL | Cmax ([7]; CYP2C9*2/*3): 2.45 (13.1) ng/mL | t1/2 ([7]; CYP2C9*2/*3): 50.9 (31.7) h | AUCinf ([7]; CYP2C9*3/*3): 271 (22.4) ng·hour/mL | Cmax ([7]; CYP2C9*3/*3): 2.35 (29.0) ng/mL | t1/2 ([7]; CYP2C9*3/*3): 126 (12.7) h | CLint (CYP2C8) [8]: 2.941 µL/min/pmol | fmCYP2C8 ([8]; fraction metabolized): 0.017 | lower total body clearance from plasma vs CYP2C9*1/*1 ([9]; CYP2C9*1/*3): 35–38% | lower total body clearance from plasma vs CYP2C9*1/*1 ([9]; CYP2C9*2/*2): 20% | lower total body clearance from plasma vs CYP2C9*1/*1 ([9]; CYP2C9*2/*3): 45–48% | lower total body clearance from plasma vs CYP2C9*1/*1 ([9]; CYP2C9*3/*3): 74% | fraction metabolized via CYP2C9 (fm,CYP2C9) ([10]; in vitro phenotyping data): 0.79 | contribution of CYP2C9 to metabolism ([10]; in vitro phenotyping, normalized to 100%): 79.3%
